Results: ChEMBL document CHEMBL1140352, “Synthesis and structure-activity relationship of novel 6-aryl-1,4-dihydrobenzo[d][1,3]oxazine-2-thiones as progesterone receptor modulators leading to the potent and selective nonsteroidal progesterone receptor agonist tanaproget” (J Med Chem, 2005)

What follows are compounds tested on T47D (assay: Effective concentration against alkaline phosphatase activity in human T47D breast carcinoma cell line).
Type: functional, cell-based

| SMILES | EC50 |
| --- | --- |
| CC1Nc2ccc(-c3ccc(F)c(C#N)c3)cc2C(C)(C)O1 (configuration not stated) | 23 nM |
| CCC1(CC)OC(S)=Nc2ccc(-c3ccc(C#N)n3C)cc21 | 0.1 nM |
| CCC1(C)OC(S)=Nc2ccc(-c3ccc(C#N)n3C)cc21 (configuration not stated) | 0.1 nM |
| Cn1c(C#N)ccc1-c1ccc2c(c1)C1(CCC1)OC(S)=N2 | 0.5 nM |
| Cn1c(C#N)ccc1-c1ccc2c(c1)C(C)(c1cccs1)OC(S)=N2 (configuration not stated) | 0.35 nM |
| CC1(C)OC(S)=Nc2ccc(-c3coc(C#N)c3)cc21 | 1.2 nM |
| CC1(C)OC(S)=Nc2ccc(-c3csc(C#N)c3)cc21 | 0.4 nM |
| CN1C(=S)OC(C)(C)c2cc(-c3ccc(C#N)[nH]3)ccc21 | 21.1 nM |
| CC1(C)OC(=S)Nc2ccc(-c3ccc(C#N)[nH]3)cc21 | 0.15 nM |
| Cn1c(C#N)ccc1-c1ccc2c(c1)C(C)(C)OC(=O)N2 | 1.1 nM |
| Cn1c(C#N)ccc1-c1ccc2c(c1)C(C)(C)OC(=S)N2 [TANAPROGET] | 0.15 nM |

The compounds below were run against T1, Progesterone receptor (Homo sapiens, UniProt P06401) (assay: Inhibition of human progesterone receptor).
T1 sequence (P06401 whole entry): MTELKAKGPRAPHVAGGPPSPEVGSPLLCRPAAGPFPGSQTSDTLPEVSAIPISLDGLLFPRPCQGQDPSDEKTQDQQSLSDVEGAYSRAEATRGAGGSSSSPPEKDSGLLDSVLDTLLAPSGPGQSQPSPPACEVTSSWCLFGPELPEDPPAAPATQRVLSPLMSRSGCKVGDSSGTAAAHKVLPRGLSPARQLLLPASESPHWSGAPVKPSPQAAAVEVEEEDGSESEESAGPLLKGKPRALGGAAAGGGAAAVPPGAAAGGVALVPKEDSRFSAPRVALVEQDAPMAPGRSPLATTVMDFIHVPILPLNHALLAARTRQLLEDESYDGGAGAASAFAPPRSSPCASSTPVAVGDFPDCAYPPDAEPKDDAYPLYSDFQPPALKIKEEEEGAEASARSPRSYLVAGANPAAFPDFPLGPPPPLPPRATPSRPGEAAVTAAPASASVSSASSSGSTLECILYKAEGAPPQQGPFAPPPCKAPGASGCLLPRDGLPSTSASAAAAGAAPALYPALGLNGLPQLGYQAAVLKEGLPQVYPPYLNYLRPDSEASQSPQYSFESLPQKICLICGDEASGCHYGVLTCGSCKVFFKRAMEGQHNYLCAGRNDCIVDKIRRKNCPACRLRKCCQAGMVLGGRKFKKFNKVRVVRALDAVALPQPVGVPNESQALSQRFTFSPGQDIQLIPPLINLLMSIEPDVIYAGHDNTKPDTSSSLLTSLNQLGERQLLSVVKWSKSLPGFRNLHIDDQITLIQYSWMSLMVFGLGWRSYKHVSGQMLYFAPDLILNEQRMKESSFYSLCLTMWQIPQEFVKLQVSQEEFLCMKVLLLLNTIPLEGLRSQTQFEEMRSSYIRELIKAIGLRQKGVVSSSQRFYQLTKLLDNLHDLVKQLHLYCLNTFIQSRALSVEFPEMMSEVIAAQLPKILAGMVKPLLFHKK

| SMILES | IC50 |
| --- | --- |
| CC(C)n1c(=O)[nH]c2ccc(-c3cccc(Cl)c3)cc21 | 73 nM |
